Experimental data as given in the kinase profiling compilation of Christmann-Franck et al. (2016).

Assays:
Assay in all cases: radiometric filter-binding kinase assay
MAPK14 (human) = MAPK14 (human) (UniProt Q16539); details: compound 1.0 µM; ATP 50 µM
ROCK2 (human) = ROCK2 (human) (UniProt O75116); details: compound 1.0 µM; ATP 20 µM
CAMKK2 (human) = CAMKK2 (human) (UniProt Q96RR4); details: compound 1.0 µM; ATP 20 µM
DYRK3 (human) = DYRK3 (human) (UniProt O43781); details: compound 1.0 µM; ATP 5 µM
PIM2 (human) = PIM2 (human) (UniProt Q9P1W9); details: compound 1.0 µM; ATP 5 µM
BRSK2 (human) = BRSK2 (human) (UniProt Q8IWQ3); details: compound 1.0 µM; ATP 50 µM
[1] = tested on: AKT1 (human), P31749 [S473D]; details: compound 1.0 µM; ATP 5 µM
MAPK11 (human) = MAPK11 (human) (UniProt Q15759); details: compound 1.0 µM; ATP 20 µM
DYRK1A (human) = DYRK1A (human) (UniProt Q13627); details: compound 1.0 µM; ATP 50 µM
PDPK1 (human) = PDPK1 (human) (UniProt O15530); details: compound 1.0 µM
PDPK1 (human), sequence (O15530 whole entry, looked up): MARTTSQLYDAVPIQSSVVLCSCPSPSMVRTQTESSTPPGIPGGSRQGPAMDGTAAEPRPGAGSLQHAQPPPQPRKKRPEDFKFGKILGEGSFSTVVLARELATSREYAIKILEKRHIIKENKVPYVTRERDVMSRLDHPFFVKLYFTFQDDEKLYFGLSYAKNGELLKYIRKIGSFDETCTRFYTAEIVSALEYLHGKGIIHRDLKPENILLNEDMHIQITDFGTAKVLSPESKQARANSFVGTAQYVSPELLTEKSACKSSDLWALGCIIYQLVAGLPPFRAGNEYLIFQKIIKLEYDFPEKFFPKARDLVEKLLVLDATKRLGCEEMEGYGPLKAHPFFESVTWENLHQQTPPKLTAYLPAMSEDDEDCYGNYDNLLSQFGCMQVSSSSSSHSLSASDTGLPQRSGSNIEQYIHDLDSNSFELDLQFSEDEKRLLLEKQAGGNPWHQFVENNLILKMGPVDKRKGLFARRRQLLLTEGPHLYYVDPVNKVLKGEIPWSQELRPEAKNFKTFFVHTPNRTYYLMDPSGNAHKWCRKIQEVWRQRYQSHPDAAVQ

CDK2 CCNA2 (human) = CDK2 CCNA2 (human) (UniProt P24941+P20248); details: compound 1.0 µM; ATP 20 µM
HIPK3 (human) = HIPK3 (human) (UniProt Q9H422); details: compound 1.0 µM; ATP 20 µM
PIM1 (human) = PIM1 (human) (UniProt P11309); details: compound 1.0 µM; ATP 20 µM
SRC (chicken) = details: compound 1.0 µM; ATP 50 µM; accession and sequence are those of the human protein
MAPK8 (human) = MAPK8 (human) (UniProt P45983); details: compound 1.0 µM; ATP 20 µM
MKNK2 (human) = MKNK2 (human) (UniProt Q9HBH9); details: compound 1.0 µM; ATP 50 µM
AKT2 (human) = AKT2 (human) (UniProt P31751); details: compound 1.0 µM; ATP 50 µM
AKT2 (human), sequence (P31751 whole entry, looked up): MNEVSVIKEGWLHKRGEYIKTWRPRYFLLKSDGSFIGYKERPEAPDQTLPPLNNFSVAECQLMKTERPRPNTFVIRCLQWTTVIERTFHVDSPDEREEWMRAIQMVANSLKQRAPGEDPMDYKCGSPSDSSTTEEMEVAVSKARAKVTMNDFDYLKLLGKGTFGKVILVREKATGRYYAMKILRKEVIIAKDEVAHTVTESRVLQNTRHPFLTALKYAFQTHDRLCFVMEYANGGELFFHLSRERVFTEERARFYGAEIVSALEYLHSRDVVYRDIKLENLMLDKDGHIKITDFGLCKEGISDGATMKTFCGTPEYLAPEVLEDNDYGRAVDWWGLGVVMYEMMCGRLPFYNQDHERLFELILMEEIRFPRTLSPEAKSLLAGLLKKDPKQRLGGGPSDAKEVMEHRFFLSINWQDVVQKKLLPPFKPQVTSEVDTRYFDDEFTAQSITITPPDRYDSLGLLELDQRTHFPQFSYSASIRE

MAPK15 (human) = MAPK15 (human) (UniProt Q8TD08); details: compound 1.0 µM; ATP 5 µM
NEK7 (human) = NEK7 (human) (UniProt Q8TDX7); details: compound 1.0 µM; ATP 20 µM
NEK7 (human), sequence (Q8TDX7 whole entry, looked up): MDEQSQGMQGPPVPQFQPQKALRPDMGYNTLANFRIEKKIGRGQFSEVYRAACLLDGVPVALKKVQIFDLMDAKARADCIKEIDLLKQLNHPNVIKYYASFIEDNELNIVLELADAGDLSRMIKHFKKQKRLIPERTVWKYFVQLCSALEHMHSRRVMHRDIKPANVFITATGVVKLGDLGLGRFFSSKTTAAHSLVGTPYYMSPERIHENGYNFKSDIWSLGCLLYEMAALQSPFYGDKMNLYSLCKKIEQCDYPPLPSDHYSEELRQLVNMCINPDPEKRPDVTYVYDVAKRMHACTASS

HIPK2 (human) = HIPK2 (human) (UniProt Q9H2X6); details: compound 1.0 µM; ATP 5 µM
MAPK1 (human) = MAPK1 (human) (UniProt P28482); details: compound 1.0 µM; ATP 50 µM
CHEK1 (human) = CHEK1 (human) (UniProt O14757); details: compound 1.0 µM; ATP 20 µM
MKNK1 (human) = MKNK1 (human) (UniProt Q9BUB5); details: compound 1.0 µM; ATP 50 µM
MKNK1 (human), sequence (Q9BUB5 whole entry, looked up): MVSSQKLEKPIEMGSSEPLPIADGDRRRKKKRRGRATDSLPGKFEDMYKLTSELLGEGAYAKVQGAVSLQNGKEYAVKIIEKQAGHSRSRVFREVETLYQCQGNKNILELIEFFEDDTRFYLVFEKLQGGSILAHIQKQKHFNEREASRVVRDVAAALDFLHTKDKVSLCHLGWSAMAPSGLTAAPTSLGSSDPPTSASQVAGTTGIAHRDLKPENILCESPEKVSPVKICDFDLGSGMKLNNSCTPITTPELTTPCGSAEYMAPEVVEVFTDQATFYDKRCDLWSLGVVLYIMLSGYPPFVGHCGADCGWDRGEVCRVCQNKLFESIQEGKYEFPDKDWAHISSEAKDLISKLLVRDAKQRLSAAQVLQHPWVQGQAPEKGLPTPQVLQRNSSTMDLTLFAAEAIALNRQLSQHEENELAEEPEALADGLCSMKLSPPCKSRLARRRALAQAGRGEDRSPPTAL

MAPK3 (human) = MAPK3 (human) (UniProt P27361); details: compound 1.0 µM; ATP 5 µM
AURKC (human) = AURKC (human) (UniProt Q9UQB9); details: compound 1.0 µM; ATP 5 µM
MAPK13 (human) = MAPK13 (human) (UniProt O15264); details: compound 1.0 µM; ATP 5 µM
MYLK (human) = MYLK (human) (UniProt Q15746); details: compound 1.0 µM; ATP 50 µM
MAPK10 (human) = MAPK10 (human) (UniProt P53779); details: compound 1.0 µM; ATP 50 µM
PRKCA (human) = PRKCA (human) (UniProt P17252); details: compound 1.0 µM; ATP 20 µM
MELK (human) = MELK (human) (UniProt Q14680); details: compound 1.0 µM; ATP 50 µM
PRKCG (human) = PRKCG (human) (UniProt P05129); details: compound 1.0 µM; ATP 5 µM
PAK7 (human) = PAK7 (human) (UniProt Q9P286); details: compound 1.0 µM; ATP 20 µM
GSK3B (human) = GSK3B (human) (UniProt P49841); details: compound 1.0 µM; ATP 5 µM
PKN2 (human) = PKN2 (human) (UniProt Q16513); details: compound 1.0 µM; ATP 5 µM
PKN2 (human), sequence (Q16513 whole entry, looked up): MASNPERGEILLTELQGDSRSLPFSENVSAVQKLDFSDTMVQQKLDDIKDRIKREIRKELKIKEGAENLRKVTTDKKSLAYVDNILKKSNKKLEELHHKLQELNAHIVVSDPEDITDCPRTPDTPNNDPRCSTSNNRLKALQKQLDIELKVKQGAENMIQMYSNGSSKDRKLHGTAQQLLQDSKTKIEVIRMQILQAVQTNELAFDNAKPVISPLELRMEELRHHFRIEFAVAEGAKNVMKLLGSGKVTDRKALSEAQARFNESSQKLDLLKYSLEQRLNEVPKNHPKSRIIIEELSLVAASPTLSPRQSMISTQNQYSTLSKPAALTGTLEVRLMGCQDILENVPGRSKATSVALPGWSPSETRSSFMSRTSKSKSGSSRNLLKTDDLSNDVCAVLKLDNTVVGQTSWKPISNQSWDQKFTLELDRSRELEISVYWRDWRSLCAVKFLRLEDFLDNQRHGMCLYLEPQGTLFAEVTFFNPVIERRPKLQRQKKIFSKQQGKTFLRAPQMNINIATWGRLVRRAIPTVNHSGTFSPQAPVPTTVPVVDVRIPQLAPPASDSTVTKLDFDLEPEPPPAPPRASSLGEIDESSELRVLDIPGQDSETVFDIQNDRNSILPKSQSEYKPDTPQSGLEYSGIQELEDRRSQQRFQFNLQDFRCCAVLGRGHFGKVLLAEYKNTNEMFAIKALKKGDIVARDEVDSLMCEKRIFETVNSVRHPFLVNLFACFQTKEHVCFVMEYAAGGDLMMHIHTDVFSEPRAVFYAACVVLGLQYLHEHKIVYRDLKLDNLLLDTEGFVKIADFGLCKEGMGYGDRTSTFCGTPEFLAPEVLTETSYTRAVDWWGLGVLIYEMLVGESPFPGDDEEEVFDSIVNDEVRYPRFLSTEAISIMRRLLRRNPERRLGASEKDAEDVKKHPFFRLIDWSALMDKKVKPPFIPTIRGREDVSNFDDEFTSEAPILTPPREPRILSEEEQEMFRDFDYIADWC

RPS6KA1 KD1 KD2 (human) = RPS6KA1 KD1 KD2 (human) (UniProt Q15418); details: compound 1.0 µM; ATP 50 µM
PHKG1 or PHKG2 (human) = PHKG1 or PHKG2 (human) (UniProt P15735+Q16816); details: compound 1.0 µM; ATP 50 µM

CAMKK2 (human), sequence (Q96RR4 whole entry, looked up): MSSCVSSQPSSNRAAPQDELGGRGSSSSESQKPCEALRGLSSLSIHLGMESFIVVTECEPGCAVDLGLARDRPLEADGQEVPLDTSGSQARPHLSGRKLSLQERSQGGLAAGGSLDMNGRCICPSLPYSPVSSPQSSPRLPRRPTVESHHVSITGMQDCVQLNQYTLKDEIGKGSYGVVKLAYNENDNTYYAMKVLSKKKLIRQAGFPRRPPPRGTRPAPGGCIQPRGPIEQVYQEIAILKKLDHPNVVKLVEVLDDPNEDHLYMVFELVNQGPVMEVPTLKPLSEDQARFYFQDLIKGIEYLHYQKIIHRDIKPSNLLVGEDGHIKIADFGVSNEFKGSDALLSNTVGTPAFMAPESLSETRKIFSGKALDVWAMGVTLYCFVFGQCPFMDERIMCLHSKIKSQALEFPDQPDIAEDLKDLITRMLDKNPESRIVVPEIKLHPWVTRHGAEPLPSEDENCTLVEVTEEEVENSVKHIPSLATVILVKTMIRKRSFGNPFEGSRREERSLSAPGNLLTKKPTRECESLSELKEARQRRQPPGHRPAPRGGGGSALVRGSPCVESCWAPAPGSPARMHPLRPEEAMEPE

SMILES: O=S(=O)(NCCNC/C=C/c1ccc(Br)cc1)c1cccc2cnccc12
- residual activity (MAPK14 (human)): 99%
- residual activity (ROCK2 (human)): 6%
- residual activity (CAMKK2 (human)): 102%
- residual activity (DYRK3 (human)): 65%
- residual activity (PIM2 (human)): 91%
- residual activity (BRSK2 (human)): 82%
- residual activity [1]: 14%
- residual activity (MAPK11 (human)): 91%
- residual activity (DYRK1A (human)): 96%
- residual activity (PDPK1 (human); ATP 20 µM): 91%
- residual activity (PDPK1 (human); ATP 50 µM): 56%
- residual activity (CDK2 CCNA2 (human)): 75%
- residual activity (HIPK3 (human)): 106%
- residual activity (PIM1 (human)): 90%
- residual activity (SRC (chicken)): 100%
- residual activity (MAPK8 (human)): 88%
- residual activity (MKNK2 (human)): 97%
- residual activity (AKT2 (human)): 21%
- residual activity (MAPK15 (human)): 93%
- residual activity (NEK7 (human)): 99%
- residual activity (HIPK2 (human)): 101%
- residual activity (MAPK1 (human)): 88%
- residual activity (CHEK1 (human)): 71%
- residual activity (MKNK1 (human)): 90%
- residual activity (MAPK3 (human)): 90%
- residual activity (AURKC (human)): 73%
- residual activity (MAPK13 (human)): 98%
- residual activity (MYLK (human)): 91%
- residual activity (MAPK10 (human)): 93%
- residual activity (PRKCA (human)): 80%
- residual activity (MELK (human)): 43%
- residual activity (PRKCG (human)): 55%
- residual activity (PAK7 (human)): 84%
- residual activity (GSK3B (human)): 88%
- residual activity (PKN2 (human)): 7%
- residual activity (RPS6KA1 KD1 KD2 (human)): 36%
- residual activity (PHKG1 or PHKG2 (human)): 76%
